Measured values published in ChEMBL document CHEMBL1139806, “Synthesis, anticancer, and cytotoxic activities of some mononuclear Ru(II) compounds” (Bioorg Med Chem, 2007).

Key:
Assay type in all cases: functional, cell-based
CCRF-CEM = assay: Cytotoxicity against human CEM cells
[1] = Cytotoxicity against human Molt 4/C8 cells; settings: Molt4/C8
L1210 = assay: Cytotoxicity against mouse L1210 cells

COc1ccc(/C=N/NC(N)=S)cc1
IC50 (CCRF-CEM): 158 µM
IC50 [1]: 196 µM
IC50 (L1210): 232 µM

NC(=S)N/N=C/c1ccc(Cl)cc1
IC50 (CCRF-CEM): 194 µM
IC50 [1]: 302 µM
IC50 (L1210): 284 µM

NC(=S)/N=N/c1c(O)[nH]c2ccccc12
IC50 (CCRF-CEM): 249 µM
IC50 [1]: 405 µM
IC50 (L1210): 382 µM

NC(=S)N/N=C/c1ccccc1F
IC50 (CCRF-CEM): 166 µM
IC50 [1]: 140 µM
IC50 (L1210): 242 µM

Oc1ccccc1/C=N/c1ccc(F)c(Cl)c1
IC50 (CCRF-CEM): 100 µM
IC50 [1]: 112 µM
IC50 (L1210): 68 µM

NC(=S)N/N=C/c1ccccc1Cl
IC50 (CCRF-CEM): 98 µM
IC50 [1]: 200 µM
IC50 (L1210): 84 µM
